Results published in patent US4201782A, “Thiadiazolyl cephalosporin analogs” (Shionogi & Co., Ltd., priority 1977, dated 1980).

Assays:
[1] = tested on: S. aureus 209P JC-1; assay: MIC by agar-dilution, S. aureus 209P JC-1; assay type: cell-based; conditions: Staphylococcus aureus, as sodium salt, pH 7.0, inoculum 10^6, read-out: Minimal Inhibitory Concentration
[2] = tested on: S. aureus Smith; assay: MIC by agar-dilution, S. aureus Smith; assay type: cell-based; conditions: Staphylococcus aureus, as sodium salt, pH 7.0, inoculum 10^6, read-out: Minimal Inhibitory Concentration
[3] = tested on: S. aureus 077; assay: MIC by agar-dilution, S. aureus 077; assay type: cell-based; conditions: Staphylococcus aureus, as sodium salt, pH 7.0, inoculum 10^6, read-out: Minimal Inhibitory Concentration
[4] = tested on: S. aureus C-14; assay: MIC by agar-dilution, S. aureus C-14; assay type: cell-based; conditions: Staphylococcus aureus, C14, as sodium salt, pH 7.0, inoculum 10^6, read-out: Minimal Inhibitory Concentration
[5] = tested on: S. pyogenes C-203; assay: MIC by agar-dilution, S. pyogenes C-203; assay type: cell-based; conditions: Streptococcus pyogenes, C203, as sodium salt, pH 7.0, inoculum 10^6, read-out: Minimal Inhibitory Concentration
[6] = tested on: S. pneumoniae I; assay: MIC by agar-dilution, S. pneumoniae I; assay type: cell-based; conditions: Streptococcus pneumoniae, as sodium salt, pH 7.0, inoculum 10^6, read-out: Minimal Inhibitory Concentration
[7] = tested on: E. coli H; assay: MIC by agar-dilution, E. coli H; assay type: cell-based; conditions: Escherichia coli, as sodium salt, pH 7.0, inoculum 10^6, read-out: Minimal Inhibitory Concentration
[8] = tested on: E. coli NIHJ JC-2; assay: MIC by agar-dilution, E. coli NIHJ JC-2; assay type: cell-based; conditions: Escherichia coli, NIHJJC2, as sodium salt, pH 7.0, inoculum 10^6, read-out: Minimal Inhibitory Concentration
[9] = tested on: E. coli EC-14; assay: MIC by agar-dilution, E. coli EC-14; assay type: cell-based; conditions: Escherichia coli, EC14, as sodium salt, pH 7.0, inoculum 10^6, read-out: Minimal Inhibitory Concentration
[10] = tested on: E. coli 377; assay: MIC by agar-dilution, E. coli 377; assay type: cell-based; conditions: Escherichia coli, as sodium salt, pH 7.0, inoculum 10^6, read-out: Minimal Inhibitory Concentration
[11] = tested on: E. coli 73; assay: MIC by agar-dilution, E. coli 73; assay type: cell-based; conditions: Escherichia coli, as sodium salt, pH 7.0, inoculum 10^6, read-out: Minimal Inhibitory Concentration
[12] = tested on: K. pneumoniae SHIONOGI; assay: MIC by agar-dilution, K. pneumoniae SHIONOGI; assay type: cell-based; conditions: Klebsiella pneumoniae, as sodium salt, pH 7.0, inoculum 10^6, read-out: Minimal Inhibitory Concentration
[13] = tested on: K. pneumoniae 363; assay: MIC by agar-dilution, K. pneumoniae 363; assay type: cell-based; conditions: Klebsiella pneumoniae, as sodium salt, pH 7.0, inoculum 10^6, read-out: Minimal Inhibitory Concentration
[14] = tested on: P. mirabilis PR-4; assay: MIC by agar-dilution, P. mirabilis PR-4; assay type: cell-based; conditions: Proteus mirabilis, PR4, as sodium salt, pH 7.0, inoculum 10^6, read-out: Minimal Inhibitory Concentration
[15] = tested on: P. morganii No. 9; assay: MIC by agar-dilution, P. morganii No. 9; assay type: cell-based, Proteus morganii; conditions: Morganella morganii, as sodium salt, pH 7.0, inoculum 10^6, read-out: Minimal Inhibitory Concentration
[16] = tested on: P. vulgaris CN-329; assay: MIC by agar-dilution, P. vulgaris CN-329; assay type: cell-based; conditions: Proteus vulgaris, CN329, as sodium salt, pH 7.0, inoculum 10^6, read-out: Minimal Inhibitory Concentration
[17] = tested on: P. vulgaris No. 3; assay: MIC by agar-dilution, P. vulgaris No. 3; assay type: cell-based; conditions: Proteus vulgaris, as sodium salt, pH 7.0, inoculum 10^6, read-out: Minimal Inhibitory Concentration
[18] = tested on: E. cloacae 233; assay: MIC by agar-dilution, E. cloacae 233; assay type: cell-based; conditions: Enterobacter cloacae, as sodium salt, pH 7.0, inoculum 10^6, read-out: Minimal Inhibitory Concentration
[19] = tested on: E. cloacae 13047; assay: MIC by agar-dilution, E. cloacae 13047; assay type: cell-based; conditions: Enterobacter cloacae, as sodium salt, pH 7.0, inoculum 10^6, read-out: Minimal Inhibitory Concentration
[20] = tested on: S. marcescens 13880; assay: MIC by agar-dilution, S. marcescens 13880; assay type: cell-based; conditions: Serratia marcescens, as sodium salt, pH 7.0, inoculum 10^6, read-out: Minimal Inhibitory Concentration
[21] = tested on: P. aeruginosa 25619; assay: MIC by agar-dilution, P. aeruginosa 25619; assay type: cell-based; conditions: Pseudomonas aeruginosa, as sodium salt, pH 7.0, inoculum 10^6, read-out: Minimal Inhibitory Concentration

MIC [1] | MIC [2] | MIC [3] | MIC [4] | MIC [5] | MIC [6] | MIC [7] | MIC [8] | MIC [9] | MIC [10] | MIC [11] | MIC [12] | MIC [13] | MIC [14] | MIC [15] | MIC [16] | MIC [17] | MIC [18] | MIC [19] | MIC [20] | Structure (SMILES) | further results
6.25 µg/mL | 6.25 µg/mL | 6.25 µg/mL | 6.25 µg/mL | 0.78 µg/mL | 3.13 µg/mL | 0.05 µg/mL | 0.39 µg/mL | 0.2 µg/mL | 0.78 µg/mL | 1.56 µg/mL | 0.2 µg/mL | 0.78 µg/mL | 0.1 µg/mL | 0.2 µg/mL | 0.1 µg/mL | 0.39 µg/mL | 12.5 µg/mL | 25 µg/mL | 1.56 µg/mL | CO[C@@]1(NC(=O)C(C(=O)O)c2ccsc2)C(=O)N2C(C(=O)O)=C(CSc3nnc(C)s3)CO[C@@H]21 (stereo partly drawn) [Compound (3), 7α-methoxy-7β-[α-(3-thienyl)-α-carboxyacetamido]-3-(2-methyl-1,3,4-thiadiazol-5-yl)thiomethyl-1-dethia-1-oxa-3-cephem-4-carboxylic acid] | MIC [21]: 25 µg/mL
12.5 µg/mL | 12.5 µg/mL | 25 µg/mL | 25 µg/mL | 3.13 µg/mL | 6.25 µg/mL | 0.2 µg/mL | 0.39 µg/mL | 0.39 µg/mL | 0.78 µg/mL | 3.13 µg/mL | 0.39 µg/mL | 0.39 µg/mL | 0.39 µg/mL | 0.78 µg/mL | 0.78 µg/mL | 0.78 µg/mL | 6.25 µg/mL | 25 µg/mL | 1.56 µg/mL | CO[C@@]1(NC(=O)C(C(=O)O)c2ccc(O)cc2)C(=O)N2C(C(=O)O)=C(CSc3nncs3)CO[C@@H]21 (stereo partly drawn) [Compound (2), 7α-methoxy-7β-(α-p-hydroxyphenyl-α-carboxyacetamido)-3-(1,3,4-thiadiazol-5-yl)thiomethyl-1-dethia-1-oxa-3-cephem-4-carboxylic acid] | MIC [21]: 25 µg/mL
6.25 µg/mL | 6.25 µg/mL | 6.25 µg/mL | 6.25 µg/mL | 3.13 µg/mL | 6.25 µg/mL | 0.1 µg/mL | 0.2 µg/mL | 0.1 µg/mL | 0.39 µg/mL | 0.78 µg/mL | 0.2 µg/mL | 0.2 µg/mL | 0.2 µg/mL | 0.2 µg/mL | 0.2 µg/mL | 0.39 µg/mL | 6.25 µg/mL | 12.5 µg/mL | 0.39 µg/mL | CO[C@@]1(NC(=O)C(C(=O)O)c2ccsc2)C(=O)N2C(C(=O)O)=C(CSc3nncs3)CO[C@@H]21 (stereo partly drawn) [Compound (4), 7α-methoxy-7β-[α-(3-thienyl)-α-carboxyacetamido]-3-(1,3,4-thiadiazol-5-yl)thiomethyl-1-dethia-1-oxa-3-cephem-4-carboxylic acid] | MIC [21]: 25 µg/mL
12.5 µg/mL | 25 µg/mL | 25 µg/mL | 25 µg/mL | 3.13 µg/mL | 3.13 µg/mL | 0.2 µg/mL | 0.78 µg/mL | 0.78 µg/mL | 1.56 µg/mL | 6.25 µg/mL | 0.78 µg/mL | 0.39 µg/mL | 0.39 µg/mL | 0.78 µg/mL | 0.39 µg/mL | 0.78 µg/mL | 1.6 µg/mL | 50 µg/mL | 3.13 µg/mL | CO[C@@]1(NC(=O)C(C(=O)O)c2ccc(O)cc2)C(=O)N2C(C(=O)O)=C(CSc3nnc(C)s3)CO[C@@H]21 (stereo partly drawn) [Compound (1), 7α-methoxy-7β-(α-p-hydroxyphenyl-α-carboxyacetamido)-3-(2-methyl-1,3,4-thiadiazol-5-yl)thiomethyl-1-dethia-1-oxa-3-cephem-4-carboxylic acid] | MIC [21]: 25 µg/mL
